Experimental findings from the supplement of paper PMC10307832 are described below.

Holding throughout (test): relative viability (nuclei count vs DMSO), 5 days (fraction); higher = more cells survive
Compound in the test “Ruxolitinib + AZD7762”: N#CC[C@H](C1CCCC1)n1cc(-c2ncnc3[nH]ccc23)cn1 [Ruxolitinib] + NC(=O)Nc1cc(-c2cccc(F)c2)sc1C(=O)N[C@H]1CCCNC1 [AZD7762] (partner 0.2 µM)
An outline of the steps:
(§1)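 A single step with final 0.05% Triton X-100, 1% formaldehyde and 1 ug/ml Hoechst fixed the cells and stained nuclei 5 days after treatment. Lung cancer cell lines in 1536-well plates had been treated by pin tool the day after seeding with one drug alone or a fixed anchor-drug dose plus five library-drug doses (not always all listed) in √10 steps, and nuclei were counted on 4× images. Relative viability is the ratio of nuclei in treated wells to nuclei in vehicle wells, taken as the median of duplicate plates.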

Compound in the test “Vismodegib + Navitoclax”: CS(=O)(=O)c1ccc(C(=O)Nc2ccc(Cl)c(-c3ccccn3)c2)c(Cl)c1 [Vismodegib] + CC1(C)CCC(c2ccc(Cl)cc2)=C(CN2CCN(c3ccc(C(=O)NS(=O)(=O)c4ccc(N[C@H](CCN5CCOCC5)CSc5ccccc5)c(S(=O)(=O)C(F)(F)F)c4)cc3)CC2)C1 [Navitoclax] (partner 0.5 µM)
An outline of the steps:
as §1

Compound in the test “VE-821 + Dasatinib”: CS(=O)(=O)c1ccc(-c2cnc(N)c(C(=O)Nc3ccccc3)n2)cc1 [VE-821] + Cc1nc(Nc2ncc(C(=O)Nc3c(C)cccc3Cl)s2)cc(N2CCN(CCO)CC2)n1 [Dasatinib] (partner 0.075 µM)
The essentials: as §1

Compound in the test “Vismodegib + Palbociclib”: CS(=O)(=O)c1ccc(C(=O)Nc2ccc(Cl)c(-c3ccccn3)c2)c(Cl)c1 [Vismodegib] + CC(=O)c1c(C)c2cnc(Nc3ccc(N4CCNCC4)cn3)nc2n(C2CCCC2)c1=O [Palbociclib] (partner 0.5 µM)
An outline of the steps: as §1

Turning to NCI-H2347, the relative viability with Ruxolitinib + AZD7762 (first compound 0.08 µM) was determined as 0.8; with Ruxolitinib + AZD7762 (first compound 0.253 µM) it was 0.89; in the test with Ruxolitinib + AZD7762 (first compound 0.8 µM) it was 0.766; in the test with Ruxolitinib + AZD7762 (first compound 2.53 µM), 0.769; with Ruxolitinib + AZD7762 (first compound 8 µM), 0.877; with Vismodegib + Navitoclax (first compound 0.08 µM), 0.735. The relative viability worked out at 0.821 in the test with Vismodegib + Navitoclax (first compound 0.253 µM); 0.766 with Vismodegib + Navitoclax (first compound 0.8 µM); 0.763 with Vismodegib + Navitoclax (first compound 2.53 µM); 0.792 with Vismodegib + Navitoclax (first compound 8 µM); 0.299 with VE-821 + Dasatinib (first compound 0.08 µM); 0.319 in the test with VE-821 + Dasatinib (first compound 0.253 µM). Further, the relative viability amounted to 0.344 in the test with VE-821 + Dasatinib (first compound 0.8 µM); 0.329 with VE-821 + Dasatinib (first compound 2.53 µM); 0.262 in the test with VE-821 + Dasatinib (first compound 8 µM); 0.443 with Vismodegib + Palbociclib (first compound 0.08 µM); 0.418 in the test with Vismodegib + Palbociclib (first compound 0.253 µM); 0.419 in the test with Vismodegib + Palbociclib (first compound 0.8 µM). Also, the relative viability with Vismodegib + Palbociclib (first compound 2.53 µM) is 0.448; in the test with Vismodegib + Palbociclib (first compound 8 µM) it was 0.488.

In the case of NCI-H2405, the relative viability turned out to be 0.738 with Ruxolitinib + AZD7762 (first compound 0.08 µM); 0.792 with Ruxolitinib + AZD7762 (first compound 0.253 µM); 0.818 with Ruxolitinib + AZD7762 (first compound 0.8 µM); 0.488 with Ruxolitinib + AZD7762 (first compound 2.53 µM); 0.416 with Ruxolitinib + AZD7762 (first compound 8 µM); 0.93 in the test with Vismodegib + Navitoclax (first compound 0.253 µM). Also, the relative viability with Vismodegib + Navitoclax (first compound 0.8 µM) worked out at 0.86; in the test with Vismodegib + Navitoclax (first compound 2.53 µM), 0.712; with Vismodegib + Navitoclax (first compound 8 µM), 0.904; with VE-821 + Dasatinib (first compound 0.08 µM), 0.178; with VE-821 + Dasatinib (first compound 0.253 µM), 0.211; in the test with VE-821 + Dasatinib (first compound 0.8 µM), 0.202. For the same cell line, the relative viability with VE-821 + Dasatinib (first compound 2.53 µM) was 0.203; with VE-821 + Dasatinib (first compound 8 µM), 0.205; with Vismodegib + Palbociclib (first compound 0.08 µM) it was 0.527; in the test with Vismodegib + Palbociclib (first compound 0.253 µM) it was 0.493; in the test with Vismodegib + Palbociclib (first compound 0.8 µM), 0.498; with Vismodegib + Palbociclib (first compound 2.53 µM), 0.515. Also, the relative viability with Vismodegib + Palbociclib (first compound 8 µM) was 0.571.

As to NCI-H3122, the relative viability with Ruxolitinib + AZD7762 (first compound 0.08 µM) was found to be 0.98; with Ruxolitinib + AZD7762 (first compound 0.253 µM), 1.07; with Ruxolitinib + AZD7762 (first compound 0.8 µM) it was 1.05; with Ruxolitinib + AZD7762 (first compound 2.53 µM), 0.943; with Ruxolitinib + AZD7762 (first compound 8 µM) it was 0.891; in the test with Vismodegib + Navitoclax (first compound 0.08 µM), 1.01. The relative viability in the test with Vismodegib + Navitoclax (first compound 0.253 µM) worked out at 1.04; with Vismodegib + Navitoclax (first compound 0.8 µM), 0.994; in the test with Vismodegib + Navitoclax (first compound 2.53 µM), 0.984; in the test with Vismodegib + Navitoclax (first compound 8 µM), 1.02; with VE-821 + Dasatinib (first compound 0.08 µM), 0.946; in the test with VE-821 + Dasatinib (first compound 0.253 µM), 0.726. Also, the relative viability was found to be 0.83 with VE-821 + Dasatinib (first compound 0.8 µM); 0.874 with VE-821 + Dasatinib (first compound 2.53 µM); 0.694 in the test with VE-821 + Dasatinib (first compound 8 µM); 0.173 with Vismodegib + Palbociclib (first compound 0.08 µM); 0.191 with Vismodegib + Palbociclib (first compound 0.253 µM); 0.167 with Vismodegib + Palbociclib (first compound 0.8 µM). In addition, the relative viability in the test with Vismodegib + Palbociclib (first compound 2.53 µM) was 0.18; in the test with Vismodegib + Palbociclib (first compound 8 µM) it was 0.19.

On to PC-3 [JPC-3], for which the relative viability with Ruxolitinib + AZD7762 (first compound 0.253 µM) was found to be 0.82; with Ruxolitinib + AZD7762 (first compound 0.8 µM) it was 0.866; in the test with Ruxolitinib + AZD7762 (first compound 2.53 µM), 0.946; with Ruxolitinib + AZD7762 (first compound 8 µM), 0.814; with Vismodegib + Navitoclax (first compound 0.08 µM), 0.758; in the test with Vismodegib + Navitoclax (first compound 0.253 µM) it was 0.789. The relative viability with Vismodegib + Navitoclax (first compound 0.8 µM) was determined as 0.769; with Vismodegib + Navitoclax (first compound 2.53 µM), 0.768; with Vismodegib + Navitoclax (first compound 8 µM), 0.778; with VE-821 + Dasatinib (first compound 0.08 µM) it was 1.06; in the test with VE-821 + Dasatinib (first compound 0.253 µM), 0.967; with VE-821 + Dasatinib (first compound 0.8 µM), 1.07. Also, the relative viability with VE-821 + Dasatinib (first compound 2.53 µM) came out at 1.02; with VE-821 + Dasatinib (first compound 8 µM), 0.907; with Vismodegib + Palbociclib (first compound 0.08 µM) it was 0.522; in the test with Vismodegib + Palbociclib (first compound 0.253 µM), 0.547; with Vismodegib + Palbociclib (first compound 0.8 µM), 0.511; in the test with Vismodegib + Palbociclib (first compound 2.53 µM) it was 0.506. Further, in the test with Vismodegib + Palbociclib (first compound 8 µM), the relative viability came to 0.572.

With PC-14, the relative viability with Ruxolitinib + AZD7762 (first compound 0.253 µM) was 0.356; with Ruxolitinib + AZD7762 (first compound 0.8 µM), 0.363; with Ruxolitinib + AZD7762 (first compound 2.53 µM), 0.347; in the test with Ruxolitinib + AZD7762 (first compound 8 µM), 0.359; with Vismodegib + Navitoclax (first compound 0.08 µM), 0.967; in the test with Vismodegib + Navitoclax (first compound 0.253 µM) it was 0.974. For the same cell line, the relative viability turned out to be 1.1 in the test with Vismodegib + Navitoclax (first compound 0.8 µM); 0.946 with Vismodegib + Navitoclax (first compound 2.53 µM); 0.965 with Vismodegib + Navitoclax (first compound 8 µM); 0.231 in the test with VE-821 + Dasatinib (first compound 0.08 µM); 0.238 with VE-821 + Dasatinib (first compound 0.253 µM); 0.269 with VE-821 + Dasatinib (first compound 0.8 µM). The relative viability with VE-821 + Dasatinib (first compound 2.53 µM) was 0.229; in the test with VE-821 + Dasatinib (first compound 8 µM) it was 0.0835; with Vismodegib + Palbociclib (first compound 0.08 µM), 0.494; in the test with Vismodegib + Palbociclib (first compound 0.253 µM), 0.492; in the test with Vismodegib + Palbociclib (first compound 0.8 µM) it was 0.614; in the test with Vismodegib + Palbociclib (first compound 2.53 µM), 0.587. For the same cell line, the relative viability with Vismodegib + Palbociclib (first compound 8 µM) stood at 0.621.

Consider RERF-LC-KJ, for which the relative viability with Ruxolitinib + AZD7762 (first compound 0.08 µM) amounted to 0.949; with Ruxolitinib + AZD7762 (first compound 0.8 µM), 1; with Ruxolitinib + AZD7762 (first compound 2.53 µM), 0.98; with Ruxolitinib + AZD7762 (first compound 8 µM), 1.01; in the test with Vismodegib + Navitoclax (first compound 0.08 µM), 0.997; with Vismodegib + Navitoclax (first compound 0.253 µM), 1.08. Further, the relative viability with Vismodegib + Navitoclax (first compound 0.8 µM) was 0.85; with Vismodegib + Navitoclax (first compound 2.53 µM), 0.756; in the test with Vismodegib + Navitoclax (first compound 8 µM) it was 0.802; in the test with VE-821 + Dasatinib (first compound 0.08 µM), 0.924; with VE-821 + Dasatinib (first compound 0.253 µM), 0.651; in the test with VE-821 + Dasatinib (first compound 0.8 µM), 0.582. In addition, the relative viability in the test with VE-821 + Dasatinib (first compound 2.53 µM) amounted to 0.69; with VE-821 + Dasatinib (first compound 8 µM), 0.582; in the test with Vismodegib + Palbociclib (first compound 0.08 µM), 1.03; with Vismodegib + Palbociclib (first compound 0.253 µM), 1; with Vismodegib + Palbociclib (first compound 0.8 µM), 1.08; with Vismodegib + Palbociclib (first compound 2.53 µM), 1.02. Moreover, the relative viability with Vismodegib + Palbociclib (first compound 8 µM) is 1.14.
